Reference: publication PMC9305971, “Development of [^18F]AmBF3 Tetrazine for Radiolabeling of Peptides: Preclinical Evaluation and PET Imaging of [^18F]AmBF3-PEG7-Tyr^3-Octreotide in an AR42J Pancreatic Carcinoma Model” (Bioconjugate Chemistry, 2022)
Where two headings read alike, the source gives them in different places.

Assays:
[1] = PET/CT imaging of [18F]15; format: in vivo, Rj:NMRI-Foxn1^nu/nu mice; details: Rj:NMRI-Foxn1^nu/nu, mouse, subcutaneous AR42J tumor, iv, 0.2 nmol, total radioactivity; for SUV at 25 min: 25 min post injection; for SUV at 1.5 h: 90 min post injection
Description: (§1) [^18F]6 in 10% ethanol–0.01 M PBS was administered intravenously to male Fox Chase SCID mice (CB.17 SCID) (11.0 ± 0.5 MBq, ∼11 nmol, ∼150 μL, n = 4) and healthy female C57BL/6JRj mice (11.3 ± 0.3 MBq, ∼11 nmol, ∼150 μL, n = 4) under 2% isoflurane anesthesia. The PET/CT image was acquired with Inveon PET/CT for 60 min followed by a 15 min static scan 4 h after injection of the tracer. The images of the dynamic scan were reconstructed to time frames 60 × 10, 10 × 60, 4 × 300, and 3 × 600 s. After the second PET imaging (t = 270 ± 1.9 min post injection, n = 4), the organs were harvested and the radioactivity in each tissue sample was measured with a γ-counter and reported as a percentage of injected dose per gram of tissue (% ID/g). [^18F]15 was formulated in 4% ethanol in 0.01 M PBS and administered intravenously (0.2 nmol, 0.80 ± 0.30 MBq; tracer: 150 μL; tracer + blocking dose: 200 μL) to AR42J tumor-bearing Rj:NMRI-Foxn1^nu/nu mice (n = 4) under 2% isoflurane anesthesia. PET/CT images were acquired with Molecubes PET (β-CUBE) coupled with a CT (X-CUBE) (MOLECUBES NV, Ghent, Belgium) with two mice being imaged at the same time under 2% isoflurane anesthesia. Images were reconstructed to time frames 30 × 10, 15 × 60, 4 × 300, and 5 × 600 s. Quantitative image analysis was done with Carimas software (v 2.10, Turku PET Centre, Turku, Finland). Spherical ROIs were hand-drawn based on anatomical CT data and PET signal for the desired organs. The results are presented as standardized uptake values (SUVs).
(§2) The standardized uptake values (SUVs) were determined from the PET image by drawing regions-of-interest (ROI) around selected organs (heart, liver, kidney, lung, muscle, urinary bladder) with Carimas software (version 2.10, Turku PET Centre, Turku, Finland ) and by measuring the ratio of radioactivity per unit volume of that ROI and normalized to the injected […]
dose. […]

[2] = tested on: subcutaneous AR42J tumor; experiment: PET/CT imaging of [18F]15; format: in vivo, Rj:NMRI-Foxn1^nu/nu mice; details: i.v., 0.2 nmol
Description: as §1, §2
dose. […]

[3] = Distribution of radioactivity in blood components after i.v. administration; format: in vivo, mice
Description: Whole blood from mice were extracted during ex vivo studies, using cardiac puncture. The sample was applied in a microtube containing 1% heparin solution in 0.9% NaCl (aq.) (2 μL); the sample was centrifuged (1000g, 10 min), the total radioactivity in the sample was measured with a γ counter, the supernatant was separated from the pellet (RBC containing fraction), and cold ACN (500 μL) was added. The sample was centrifuged (10,000g, 5 min) to remove the free fraction from the precipitated protein-containing pellet. The pellet (protein-bound fraction) and the supernatant (free fraction) were measured with a γ counter, and a sample (100 μL) was injected into HPLC and spotted (4 μL) on a TLC plate (radio-TLC, TLC silica gel 60 F254, ACN/water 80:20).

[4] = 60 min post injection, blocked with octreotide

| Structure (SMILES) | SUV at 25 min ([1]; coadministration of octreotide, read-out: tumor SUV, blocked) [SUV] | SUV at 25 min ([1]; read-out: tumor SUV, baseline) [SUV] | SUV at 1.5 h ([1]; n = 2, coadministration of octreotide, read-out: tumor SUV, blocking) [SUV] | SUV at 1.5 h ([1]; n = 2, read-out: tumor SUV, baseline) [SUV] | time of peak radioactivity in tumor (TAC) [2] [min] | protein bound fraction ([3]; 5 min post injection) [%] | radioactivity bound to red blood cells ([3]; 5 min post injection) [%] | radioactivity bound to red blood cells ([3]; 5 min post injection, listed as [18F]14) [%] | protein bound fraction ([3]; 60 min post injection) [%] | radioactivity bound to red blood cells ([3]; 60 min post injection) [%] | protein bound fraction [3, 4] [%] | radioactivity bound to red blood cells [3, 4] [%] | radioactivity bound to red blood cells ([3]; 60 min post injection, blocked with octreotide, listed as [18F]14) [%] | radioactivity bound to red blood cells ([3]; 60 min post injection, listed as [18F]14) [%] | fraction unbound at 5 min ([3]; mouse, whole blood, intravenous, 5 min post injection, read-out: free fraction) | fraction unbound at 60 min ([3]; mouse, whole blood, intravenous, 60 min post injection, blocked with octreotide, read-out: free fraction) | fraction unbound at 60 min ([3]; mouse, whole blood, intravenous, 60 min post injection, read-out: free fraction) |
| --- | --- | --- | --- | --- | --- | --- | --- | --- | --- | --- | --- | --- | --- | --- | --- | --- | --- |
| C[C@@H](O)[C@@H]1NC(=O)[C@H](CCCCN)NC(=O)[C@@H](Cc2c[nH]c3ccccc23)NC(=O)[C@H](Cc2ccc(O)cc2)NC(=O)[C@@H](NC(=O)[C@@H](Cc2ccccc2)NC(=O)CCOCCOCCOCCOCCON=Cc2ccc(C(=O)NCCOCCOCCOCCNC(=O)OC3CCCc4cnnc(-c5ccc(CC(=O)NCC[N+](C)(C)C[B-](F)(F)F)cc5)c4CC3)cc2)CSSC[C@@H](C(=O)N[C@H](CO)[C@@H](C)O)NC1=O (some centres unmarked) [[^18F]15] | 0.76 ± 0.04 | 1.01 ± 0.07 | 0.76 ± 0.03 | 0.82 ± 0.14 | 20 to 30 | – | – | – | – | – | – | – | – | – | – | – | – |
| C[C@@H](O)[C@@H]1NC(=O)[C@H](CCCCN)NC(=O)[C@@H](Cc2c[nH]c3ccccc23)NC(=O)[C@H](Cc2ccc(O)cc2)NC(=O)[C@@H](NC(=O)[C@@H](Cc2ccccc2)NC(=O)CCOCCOCCOCCOCCON=Cc2ccc(CNC(=O)OC3CCCc4cnnc(-c5ccc(CC(=O)NCC[N+](C)(C)C[B-](F)(F)F)cc5)c4CC3)cc2)CSSC[C@@H](C(=O)N[C@H](CO)[C@@H](C)O)NC1=O (some centres unmarked) [[^18F]14] | – | – | – | – | – | 5.5 | 22 | 21.6 | 7.00 | 25 | 14.6 | 29.7 ± 2.9 | 29.7 | 24.5 | 0.729 ± 0.051 | 0.557 ± 0.114 | 0.685 ± 0.053 |
